Measured values taken from ChEMBL document CHEMBL1201862, “PubChem BioAssay data set” (2004).
Activity calls are given as the source filed them.

Key:
[1] = A cytotoxicity screen of small molecule inhibitors of the PhoP region in Salmonella typhi identified in the primary screen. [Related pubchem assays: 1850, 1864, 1985 ]; format: functional
[2] = HEK293 cell cytotoxicity, dose response, cytotoxicity control, plate reader, cherry-picked samples (AID 743446); format: functional, cell-based
Paired box protein Pax-8 = Paired box protein Pax-8 (Homo sapiens, UniProt Q06710); assay: inhibitors of PAX8-driven TPO luciferase reporter, dose response, RMG-I cells, cherry-pick (AID 687027); format: functional, cell-based;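 further: luciferase reporter driven by Pax8 target thyroperoxidase promoter measured by SteadyGlo luminescence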
[3] = HepG2 cell cytotoxicity, dose response, cytotoxicity control for Shn3 inhibitor project, CellTiter-Glo, cherry-picked (AID 624134); format: functional, cell-based
[4] = inhibitors of intracellular T. cruzi replication, confirmation, NIH3T3 host cells, beta-gal luminescence (AID 2044); format: functional, cell-based;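 further: intracellular parasites grown in NIH/3T3 mouse fibroblasts as host cells; luminescent beta-galactosidase reporter signal from transgenic T. cruzi replicating inside host cells; inhibitors lower the luminescence signal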
[5] = cytotoxicity in MIN6 insulinoma cells, dose response, cytotoxicity control, cell-based, mouse insulinoma (AID 2122); format: functional;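 further: confirmatory high-throughput counterscreen run to flag cytotoxic compounds; mouse MIN-6 beta cells carrying an insulin promoter eGFP reporter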
[6] = insulin promoter down-regulators in MIN6 cells, imaging, high-content screening, mouse beta cells (AID 1628); format: functional
[7] = molecular target: Sphingosine 1-phosphate receptor 1 (Homo sapiens, UniProt P21453); format: functional;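 further: Tango beta-arrestin reporter U2OS cells stimulated with S1P near its EC80; inhibitor potency meaning antagonism of receptor activation by the natural agonist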
Sphingosine 1-phosphate receptor 1, sequence (P21453 whole entry): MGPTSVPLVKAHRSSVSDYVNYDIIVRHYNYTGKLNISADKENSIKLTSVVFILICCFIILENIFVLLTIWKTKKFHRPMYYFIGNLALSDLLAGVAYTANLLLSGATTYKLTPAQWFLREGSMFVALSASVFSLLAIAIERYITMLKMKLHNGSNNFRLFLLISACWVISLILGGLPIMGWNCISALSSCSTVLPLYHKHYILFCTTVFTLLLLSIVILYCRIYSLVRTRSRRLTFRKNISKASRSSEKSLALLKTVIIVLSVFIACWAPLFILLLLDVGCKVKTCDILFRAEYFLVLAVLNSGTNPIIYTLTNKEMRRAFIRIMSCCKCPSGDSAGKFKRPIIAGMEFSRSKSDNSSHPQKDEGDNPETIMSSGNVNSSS

[8] = A549 cell cytotoxicity, dose response, cytotoxicity control, plate reader, cherry-pick, antagonist series (AID 743412); format: functional, cell-based
[9] = LGR2 antagonists, dose response, cell-based, HEK293, CRE-luciferase reporter, cherry pick, set 2 (AID 743343); format: functional;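 further: transfected cells were stimulated with diluted bursicon conditioned medium after compound addition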
[10] = cytotoxicity toward NIH3T3 fibroblasts, dose response, counter-screen, cell-based, ATP luminescence, mouse fibroblasts (AID 2010); format: functional;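 further: cells exposed to compound for about 90 hours before reading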
[11] = control 3'UTR Renilla luciferase suppression, dose response, counter-screen for Shn3 inhibitor project, cell-based, Clone20-Shn3RL, cherry-picked (AID 624133); format: functional
[12] = MC4R antagonists, dose response, counter-screen for LGR2 antagonist project, cell-based, plate reader, cherry pick (AID 743444); format: functional;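 further: transfected HEK 293 cells stimulated with alpha-MSH peptide; potency of inhibitors of the alpha-MSH evoked signal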
[13] = molecular target: T1, Sphingosine 1-phosphate receptor 4 (Homo sapiens, UniProt O95977); assay: Fluorescence dose response cell-based high throughput screening assay for antagonists of the Sphingosine 1-Phosphate Receptor 4 (S1P4). [Related pubchem assays: 1524 (Confirmation in triplicates.), 1510 (Primary screen.)]; format: functional
T1 sequence (O95977 whole entry): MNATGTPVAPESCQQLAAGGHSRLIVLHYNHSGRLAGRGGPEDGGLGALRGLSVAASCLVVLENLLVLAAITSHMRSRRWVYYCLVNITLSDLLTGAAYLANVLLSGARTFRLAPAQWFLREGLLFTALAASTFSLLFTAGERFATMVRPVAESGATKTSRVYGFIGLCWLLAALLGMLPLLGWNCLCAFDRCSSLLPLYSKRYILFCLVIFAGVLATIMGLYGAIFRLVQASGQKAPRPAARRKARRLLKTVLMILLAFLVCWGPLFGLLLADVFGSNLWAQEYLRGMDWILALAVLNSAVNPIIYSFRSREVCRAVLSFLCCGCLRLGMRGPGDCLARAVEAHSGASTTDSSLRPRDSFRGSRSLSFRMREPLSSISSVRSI

[14] = Shn3 3'UTR reporter inhibitors, dose response, cell-based, Clone20 osteoblasts, firefly luciferase, cherry-picked (AID 624132); format: functional;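 further: firefly luciferase luminescence from reporter carrying the Shn3 3'UTR in osteoblasts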
[15] = HepG2 cell cytotoxicity, dose response, cytotoxicity control, plate reader, cherry-pick, antagonist series (AID 743416); format: functional, cell-based
[16] = molecular target: T2, Zinc finger protein mex-5 (Caenorhabditis elegans, UniProt Q9XUB2); assay: MEX-5/TCR-2 RNA interaction inhibitors, dose response, biochemical, C. elegans, fluorescence polarization (AID 1960)
T2 sequence (Q9XUB2 whole entry): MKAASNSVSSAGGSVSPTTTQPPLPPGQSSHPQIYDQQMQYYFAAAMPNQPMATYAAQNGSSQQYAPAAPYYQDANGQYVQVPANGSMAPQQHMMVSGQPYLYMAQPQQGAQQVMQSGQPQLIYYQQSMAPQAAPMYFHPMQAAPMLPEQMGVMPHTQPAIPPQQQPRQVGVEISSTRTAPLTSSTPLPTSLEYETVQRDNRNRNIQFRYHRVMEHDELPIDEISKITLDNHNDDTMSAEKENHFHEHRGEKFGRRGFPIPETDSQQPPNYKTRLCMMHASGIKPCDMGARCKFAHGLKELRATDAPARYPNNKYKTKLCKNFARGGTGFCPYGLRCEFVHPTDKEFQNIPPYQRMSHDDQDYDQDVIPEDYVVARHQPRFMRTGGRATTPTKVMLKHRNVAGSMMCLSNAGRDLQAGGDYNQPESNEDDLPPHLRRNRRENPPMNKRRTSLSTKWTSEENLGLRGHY

[17] = molecular target: T3, Peroxisome proliferator-activated receptor gamma/Nuclear receptor corepressor 2 (Homo sapiens, UniProt P37231+Q9Y618); format: functional
T3 sequence (P37231 whole entry): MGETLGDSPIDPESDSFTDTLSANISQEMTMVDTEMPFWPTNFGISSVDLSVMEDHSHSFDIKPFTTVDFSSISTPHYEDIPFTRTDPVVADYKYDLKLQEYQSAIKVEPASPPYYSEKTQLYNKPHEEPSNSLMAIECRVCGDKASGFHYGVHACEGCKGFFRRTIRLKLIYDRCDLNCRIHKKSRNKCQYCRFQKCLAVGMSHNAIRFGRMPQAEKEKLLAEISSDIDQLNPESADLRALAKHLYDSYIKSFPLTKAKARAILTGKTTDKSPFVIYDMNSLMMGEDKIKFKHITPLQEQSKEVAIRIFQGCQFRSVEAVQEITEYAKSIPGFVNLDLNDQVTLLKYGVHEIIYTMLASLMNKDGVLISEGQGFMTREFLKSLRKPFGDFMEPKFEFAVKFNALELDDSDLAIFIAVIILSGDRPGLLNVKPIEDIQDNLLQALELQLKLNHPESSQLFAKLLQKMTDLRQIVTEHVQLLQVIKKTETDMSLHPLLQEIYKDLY
T3 sequence (Q9Y618 whole entry): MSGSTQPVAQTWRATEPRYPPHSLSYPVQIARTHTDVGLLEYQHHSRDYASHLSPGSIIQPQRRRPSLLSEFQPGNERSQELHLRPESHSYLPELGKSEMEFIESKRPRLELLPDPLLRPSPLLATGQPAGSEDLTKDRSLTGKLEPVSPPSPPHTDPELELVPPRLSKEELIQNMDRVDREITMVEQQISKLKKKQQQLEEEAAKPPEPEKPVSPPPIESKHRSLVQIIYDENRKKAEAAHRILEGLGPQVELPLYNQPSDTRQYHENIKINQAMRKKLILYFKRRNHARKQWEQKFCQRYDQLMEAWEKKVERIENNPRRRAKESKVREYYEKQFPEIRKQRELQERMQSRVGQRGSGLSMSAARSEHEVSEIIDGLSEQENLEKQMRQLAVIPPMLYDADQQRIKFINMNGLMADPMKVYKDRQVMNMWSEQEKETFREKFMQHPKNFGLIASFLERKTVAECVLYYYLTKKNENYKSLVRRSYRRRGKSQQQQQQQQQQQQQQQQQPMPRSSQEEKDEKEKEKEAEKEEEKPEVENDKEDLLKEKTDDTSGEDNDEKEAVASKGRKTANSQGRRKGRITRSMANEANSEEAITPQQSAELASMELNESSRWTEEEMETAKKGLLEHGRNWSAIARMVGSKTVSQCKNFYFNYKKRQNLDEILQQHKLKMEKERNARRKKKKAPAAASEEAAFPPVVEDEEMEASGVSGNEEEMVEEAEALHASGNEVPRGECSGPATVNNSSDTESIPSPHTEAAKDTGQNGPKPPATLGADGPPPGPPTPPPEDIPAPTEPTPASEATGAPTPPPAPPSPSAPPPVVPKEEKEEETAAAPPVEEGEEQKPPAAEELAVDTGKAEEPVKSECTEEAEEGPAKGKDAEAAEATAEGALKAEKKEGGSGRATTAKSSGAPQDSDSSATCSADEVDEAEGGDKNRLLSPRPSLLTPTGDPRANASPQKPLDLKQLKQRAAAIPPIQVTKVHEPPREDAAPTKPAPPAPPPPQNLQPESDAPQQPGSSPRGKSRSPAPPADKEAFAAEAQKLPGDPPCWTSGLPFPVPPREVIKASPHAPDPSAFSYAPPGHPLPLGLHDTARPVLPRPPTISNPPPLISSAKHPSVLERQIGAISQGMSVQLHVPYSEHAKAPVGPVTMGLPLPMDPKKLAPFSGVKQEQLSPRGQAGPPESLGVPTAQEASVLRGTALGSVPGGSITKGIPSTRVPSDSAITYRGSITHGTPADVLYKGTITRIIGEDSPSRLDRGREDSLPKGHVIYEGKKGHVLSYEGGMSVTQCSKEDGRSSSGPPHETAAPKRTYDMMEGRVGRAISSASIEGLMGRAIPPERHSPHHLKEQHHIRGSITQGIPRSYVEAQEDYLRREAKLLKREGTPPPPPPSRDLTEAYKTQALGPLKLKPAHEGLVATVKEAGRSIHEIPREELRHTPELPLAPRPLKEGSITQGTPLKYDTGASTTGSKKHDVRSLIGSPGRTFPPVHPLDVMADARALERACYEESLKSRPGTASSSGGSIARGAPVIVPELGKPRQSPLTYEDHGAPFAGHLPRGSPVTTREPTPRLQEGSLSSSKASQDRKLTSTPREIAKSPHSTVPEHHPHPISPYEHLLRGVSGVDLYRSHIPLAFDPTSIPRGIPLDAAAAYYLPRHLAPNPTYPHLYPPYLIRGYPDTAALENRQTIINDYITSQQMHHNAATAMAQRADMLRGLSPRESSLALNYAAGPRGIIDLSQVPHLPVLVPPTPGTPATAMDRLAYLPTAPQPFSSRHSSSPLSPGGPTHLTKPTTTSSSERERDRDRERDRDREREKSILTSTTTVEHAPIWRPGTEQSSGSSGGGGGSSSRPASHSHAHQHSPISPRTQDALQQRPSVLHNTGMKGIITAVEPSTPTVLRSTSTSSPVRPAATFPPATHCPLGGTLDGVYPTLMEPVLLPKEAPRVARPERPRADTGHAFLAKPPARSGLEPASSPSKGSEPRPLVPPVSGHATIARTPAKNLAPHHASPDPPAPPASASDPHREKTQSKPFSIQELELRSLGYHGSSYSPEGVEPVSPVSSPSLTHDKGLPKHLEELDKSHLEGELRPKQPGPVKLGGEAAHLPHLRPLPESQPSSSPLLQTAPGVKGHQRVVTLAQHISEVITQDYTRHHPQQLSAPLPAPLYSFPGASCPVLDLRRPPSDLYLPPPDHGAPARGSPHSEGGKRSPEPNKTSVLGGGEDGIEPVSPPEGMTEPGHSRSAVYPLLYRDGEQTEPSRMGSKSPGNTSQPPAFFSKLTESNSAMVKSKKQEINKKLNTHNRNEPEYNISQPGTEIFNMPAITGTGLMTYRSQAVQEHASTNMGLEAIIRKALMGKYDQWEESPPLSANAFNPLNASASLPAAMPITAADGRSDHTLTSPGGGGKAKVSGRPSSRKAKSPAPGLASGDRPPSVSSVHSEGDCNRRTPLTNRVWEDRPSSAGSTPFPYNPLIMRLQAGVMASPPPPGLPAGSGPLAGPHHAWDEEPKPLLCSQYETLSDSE

Genome polyprotein = Genome polyprotein (dengue virus type 2, UniProt P29990); assay: Dengue-2 NS5 methyltransferase inhibitors, primary screen, biochemical, confirmation dose response (AID 588689); format: functional
[18] = molecular target: T4, Photoreceptor-specific nuclear receptor (Homo sapiens, UniProt Q9Y5X4); format: functional;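 further: potency for compounds that break the NR2E3 corepressor complex and count as activators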
T4 sequence (Q9Y5X4 whole entry, the tested form may be a part): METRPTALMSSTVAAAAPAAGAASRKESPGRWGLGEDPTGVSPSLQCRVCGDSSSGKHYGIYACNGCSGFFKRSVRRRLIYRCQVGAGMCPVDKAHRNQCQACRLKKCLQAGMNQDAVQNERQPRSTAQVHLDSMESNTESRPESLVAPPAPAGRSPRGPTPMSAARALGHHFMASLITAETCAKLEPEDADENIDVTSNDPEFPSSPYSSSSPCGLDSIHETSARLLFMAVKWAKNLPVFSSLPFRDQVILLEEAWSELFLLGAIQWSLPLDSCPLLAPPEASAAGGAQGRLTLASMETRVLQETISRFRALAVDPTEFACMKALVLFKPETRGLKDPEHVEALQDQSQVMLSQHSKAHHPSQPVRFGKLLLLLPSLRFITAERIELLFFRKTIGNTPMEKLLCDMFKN

[19] = molecular target: T5, RNA-binding protein pos-1 (Caenorhabditis elegans, UniProt G5EF15); assay: inhibitors of POS-1/mex-3 RNA binding, dose response, biochemical, fluorescence polarization (AID 1964);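 further: purified POS-1 fused to maltose binding protein made in E. coli; potency of compounds blocking POS-1 binding to fluorescent RNA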
T5 sequence (G5EF15 whole entry): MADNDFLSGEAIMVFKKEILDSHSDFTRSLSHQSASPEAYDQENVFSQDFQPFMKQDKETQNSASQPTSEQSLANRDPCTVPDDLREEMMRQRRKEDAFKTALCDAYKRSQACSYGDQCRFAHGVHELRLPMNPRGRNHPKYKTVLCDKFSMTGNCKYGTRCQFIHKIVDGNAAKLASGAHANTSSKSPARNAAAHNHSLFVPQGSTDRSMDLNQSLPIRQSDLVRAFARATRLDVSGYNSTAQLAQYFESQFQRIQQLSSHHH

[20] = molecular target: T6, Lytic switch protein BZLF1 (Epstein-Barr virus (strain B95-8) (HHV-4) (Human herpesvirus 4), UniProt P03206); assay: EBV ZTA inhibitors, dose response, counter-screen for EBNA-1 inhibitor project, biochemical, fluorescence polarization, Epstein-Barr virus, 1536-well (AID 2377); parameters: species or system human gammaherpesvirus 4;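 further: fluorescence polarization of Cy5-labelled ZRE DNA probe bound by purified Zta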
T6 sequence (P03206 whole entry): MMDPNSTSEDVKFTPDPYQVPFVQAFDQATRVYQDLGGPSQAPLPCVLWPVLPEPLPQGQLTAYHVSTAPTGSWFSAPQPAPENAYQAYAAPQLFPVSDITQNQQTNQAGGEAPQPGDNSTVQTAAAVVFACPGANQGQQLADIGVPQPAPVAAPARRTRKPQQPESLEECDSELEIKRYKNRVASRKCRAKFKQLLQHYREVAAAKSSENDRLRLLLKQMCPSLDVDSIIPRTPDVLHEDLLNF

[21] = growth suppression of beta-catenin-knockout colon cells, dose response, cell-based, HCT116, human colon tumor (AID 1045); format: functional;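 further: HCT116 colon tumor cells with beta catenin knocked out; cells exposed to compound for 60 hours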
[22] = molecular target: T7, Epstein-Barr nuclear antigen 1 (Epstein-Barr virus (strain B95-8) (HHV-4) (Human herpesvirus 4), UniProt P03211); assay: EBNA-1 inhibitors, dose response, biochemical, fluorescence polarization, 1536-well (AID 2381); parameters: species or system human gammaherpesvirus 4;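 further: fluorescence polarization of a Cy5 DNA probe bound by EBNA-1 protein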
T7 sequence (P03211 whole entry): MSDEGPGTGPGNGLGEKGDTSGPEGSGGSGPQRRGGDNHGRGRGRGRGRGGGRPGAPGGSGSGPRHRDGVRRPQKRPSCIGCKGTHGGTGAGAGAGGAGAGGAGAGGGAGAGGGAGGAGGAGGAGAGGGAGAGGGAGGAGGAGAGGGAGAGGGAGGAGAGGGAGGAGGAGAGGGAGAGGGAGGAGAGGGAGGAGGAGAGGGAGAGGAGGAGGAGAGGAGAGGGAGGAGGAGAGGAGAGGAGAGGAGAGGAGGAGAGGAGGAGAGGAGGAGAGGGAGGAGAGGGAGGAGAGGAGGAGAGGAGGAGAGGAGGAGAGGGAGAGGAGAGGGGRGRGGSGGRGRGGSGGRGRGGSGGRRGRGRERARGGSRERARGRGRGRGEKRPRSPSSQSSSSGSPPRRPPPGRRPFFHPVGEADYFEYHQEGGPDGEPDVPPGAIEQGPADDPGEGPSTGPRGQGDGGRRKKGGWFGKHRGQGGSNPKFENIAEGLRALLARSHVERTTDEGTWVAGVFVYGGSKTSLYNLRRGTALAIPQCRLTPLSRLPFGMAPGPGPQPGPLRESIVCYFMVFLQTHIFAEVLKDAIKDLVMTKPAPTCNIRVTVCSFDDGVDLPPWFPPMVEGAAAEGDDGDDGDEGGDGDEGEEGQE

[23] = growth suppression of PTEN-null colon cells, dose response, cell-based, HCT116 PTEN knockout (AID 1047); format: functional;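 further: HCT116 colon tumor cells with PTEN knocked out; cells exposed to compound for 60 hours before readout; potency for loss of cell viability measured by luminescence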
Estrogen receptor beta = Estrogen receptor beta (Homo sapiens, UniProt Q92731);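 further: recombinant ER-beta bound to coactivator SRC1 peptide in presence of estradiol agonist; inhibitors block coactivator peptide binding and lower the FRET signal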
Estrogen receptor beta, sequence (Q92731 whole entry): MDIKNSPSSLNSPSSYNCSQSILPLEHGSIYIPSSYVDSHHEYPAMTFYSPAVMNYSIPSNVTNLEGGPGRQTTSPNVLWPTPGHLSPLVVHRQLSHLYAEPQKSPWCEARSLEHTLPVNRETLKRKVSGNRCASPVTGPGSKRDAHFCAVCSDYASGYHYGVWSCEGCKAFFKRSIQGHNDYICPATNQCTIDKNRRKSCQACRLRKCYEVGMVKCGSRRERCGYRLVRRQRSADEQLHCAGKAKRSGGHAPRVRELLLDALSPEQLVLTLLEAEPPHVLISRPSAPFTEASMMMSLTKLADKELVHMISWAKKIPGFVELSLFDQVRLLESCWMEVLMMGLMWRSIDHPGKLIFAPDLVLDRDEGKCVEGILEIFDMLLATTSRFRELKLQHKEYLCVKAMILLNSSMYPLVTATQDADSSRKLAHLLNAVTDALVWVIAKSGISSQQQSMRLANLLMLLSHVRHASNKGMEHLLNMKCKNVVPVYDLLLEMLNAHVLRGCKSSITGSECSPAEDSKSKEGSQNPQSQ

[24] = molecular target: Luciferin 4-monooxygenase (Photinus pyralis, UniProt P08659); assay: firefly luciferase enzyme inhibitors, dose response, biochemical, luminescence (AID 1891)
[25] = Luminescence Cell-Based Dose Confirmation HTS to Identify Inhibitors of Platelet Dense Granule Release. [Related pubchem assays: 1663 (Primary HTS), 1678 (Summary of Project)]; format: functional
[26] = molecular target: Induced myeloid leukemia cell differentiation protein Mcl-1 (Homo sapiens, UniProt Q07820); format: functional
Induced myeloid leukemia cell differentiation protein Mcl-1, sequence (Q07820 whole entry): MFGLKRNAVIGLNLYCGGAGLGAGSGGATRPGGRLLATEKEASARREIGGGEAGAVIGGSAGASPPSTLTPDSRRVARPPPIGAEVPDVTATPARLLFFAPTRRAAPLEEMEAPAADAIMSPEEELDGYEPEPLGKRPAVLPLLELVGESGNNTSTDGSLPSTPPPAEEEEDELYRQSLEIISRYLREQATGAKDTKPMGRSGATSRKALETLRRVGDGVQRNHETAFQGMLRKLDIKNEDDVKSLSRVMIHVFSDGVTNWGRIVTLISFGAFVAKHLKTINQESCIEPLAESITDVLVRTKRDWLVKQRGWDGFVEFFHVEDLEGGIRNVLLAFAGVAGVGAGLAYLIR

[27] = molecular target: T3, Peroxisome proliferator-activated receptor gamma/Nuclear receptor corepressor 2; assay: Counterscreen for NR2E3 inverse agonists: TR-FRET-based biochemical high throughput dose response assay to identify inverse agonists of the interaction between peroxisome proliferator-activated receptor gamma (PPARg) and nuclear receptor co-repressor 2 (NCOR2).; format: functional
[28] = molecular target: T4, Photoreceptor-specific nuclear receptor; assay: NR2E3 inverse agonists, dose response, biochemical, TR-FRET (AID 463256); format: functional
Cytochrome P450 2C9 = Cytochrome P450 2C9 (Homo sapiens, UniProt P11712)

**Q.** With `CCN1C(=O)N/C(=C/c2cc(C)n(Cc3ccccc3)c2C)C1=O` as the compound, how does the EC50 [1] read?
**A.** The EC50 was > 50 µM (active).

**Q.** What does the source list for `COc1ccc(-n2ncc(Cl)c(Cl)c2=O)cc1`?
**A.** AC50 [2]: 7.88 µM (active); AC50 (Paired box protein Pax-8): 5.62 µM (active); AC50 [3]: 32.9 µM (active); EC50 [4]: 1.59 µM (active); IC50 [5]: 1.11 µM (active); IC50 [6]: 1.56 µM (active); IC50 [7]: 21.6 µM (not active); AC50 [8]: 10.8 µM (active); AC50 [9]: 20.2 µM (active); EC50 [10]: 2.03 µM (active); AC50 [11]: 8.07 µM (active); AC50 [12]: 26.5 µM (active); IC50 [13]: 2.09 µM (active); AC50 [14]: 3.36 µM (active); AC50 [15]: 8.23 µM (active)

**Q.** What does the source list for `CC(=O)N(Cc1cccnc1)c1cccc(-c2nc3ccccc3s2)c1`?
**A.** EC50 [4]: < 0.1 µM (active); EC50 [10]: > 60 µM (not active); EC50 (cells): 0.078 µM (active)

**Q.** For `COC(=O)c1c(Cl)c2n3ccccc3c(C)c(-c3ccccc3)c-2c1C(=O)OC`, which EC50 [16] is on record?
**A.** Its EC50 is 25.8 µM (active).

**Q.** What about the IC50 [17] of the same compound?
**A.** Its IC50 is 0.0555 µM (active).

**Q.** What about the IC50 (Genome polyprotein) of the same compound?
**A.** Its IC50 is 74.5 µM (active).

**Q.** And the IC50 [18]?
**A.** Its IC50 is 0.303 µM (active).

**Q.** What about the EC50 [19] of the same compound?
**A.** Its EC50 is 47.5 µM (active).

**Q.** Which EC50 [4] does the source give for `O=C(Nc1ccc2ccccc2c1)Nc1ccc2snnc2c1` here?
**A.** The EC50 was 1.94 µM (active).

**Q.** What about the IC50 [20] of the same compound?
**A.** The IC50 was > 111 µM (not active).

**Q.** And the EC50 [21]?
**A.** The EC50 was 15.9 µM (active).

**Q.** And the EC50 [10]?
**A.** Its EC50 is > 60 µM (not active).

**Q.** And the IC50 [22]?
**A.** Its IC50 is 10.1 µM (not active).

**Q.** What about the EC50 [23] of the same compound?
**A.** Its EC50 is 14.9 µM (active).

**Q.** With `O=C(Nc1nnc(C2CCCO2)s1)c1ccc(Br)cc1` (stereo unspecified) as the compound, how does the IC50 (Estrogen receptor beta) read?
**A.** The IC50 was > 50 µM (not active).

**Q.** For `C(=C\c1ccco1)/c1ccc2ccccc2n1`, which EC50 [24] is on record?
**A.** Its EC50 is 4.25 µM (active).

**Q.** What about the EC50 [25] of the same compound?
**A.** Its EC50 is 15.2 µM (active).

**Q.** And the IC50 [26]?
**A.** The IC50 was 9.47 µM (active).

**Q.** For `COc1ccc(-c2nn3c(-c4ccc(F)cc4)nnc3s2)cc1`, which IC50 [27] is on record?
**A.** The IC50 was > 39.8 µM (not active).

**Q.** And the IC50 [28]?
**A.** Its IC50 is > 39.8 µM (not active).

**Q.** Which results are given for `COc1ccccc1NC(=O)C(=O)N/N=C/c1ccc([N+](=O)[O-])s1`?
**A.** EC50 [4]: 0.858 µM (active); EC50 [10]: > 60 µM (not active); IC50 [26]: 2.56 µM (active)

**Q.** What does the source list for `COc1cccc(/C=N/NC(=O)CO/N=C(\C)c2cccs2)c1OC`?
**A.** AC50 (Cytochrome P450 2C9): 39.8 µM (inconclusive); EC50 [1]: > 50 µM (active)
